Calls of active or inactive are those of the source. How the calls were made is not given here.
Tested on: T. cruzi-infected H9C2 cardiomyocytes, high-content imaging
Test: anti-T. cruzi activity in infected cardiomyocytes – imaging, H9C2 host cardiomyocytes, host toxicity (AID 1159565);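 further: infected cells incubated 72 h after plating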
[1] = measured here: H9C2 host cell toxicity
[2] = measured here: amastigotes per cell

Structure (SMILES): O=c1cc(NCCCNCc2cc(C(F)(F)F)cs2)[nH]c2ccccc12
- IC50: > 50000 nM (inactive)
- IC50 [1]: 32000 nM
- IC50 [2]: 5000 nM

Structure (SMILES): CCN(Cc1nc2ccc(C(=O)N3CCN(c4ncccn4)CC3)cc2[nH]1)C1CCCc2cccnc21 (stereo not given)
- IC50: 13000 nM
- IC50 [1]: 16000 nM
- IC50 [2]: 2000 nM

Structure (SMILES): CCc1cccc(CC)c1-n1c(SCC(=O)N2CC(=O)Nc3ccccc32)nnc1-c1cccnc1
- IC50: 32000 nM
- IC50 [1]: > 50000 nM
- IC50 [2]: 25000 nM

Structure (SMILES): COCc1cc(Nc2ccccc2)nc(-c2ccccn2)n1
- IC50: 25000 nM
- IC50 [1]: 4000 nM
- IC50 [2]: 13000 nM

Structure (SMILES): Cn1nc(C(=O)N2CCc3ccccc32)c2c1CCS(=O)(=O)C2
- IC50: 13000 nM
- IC50 [1]: > 50000 nM
- IC50 [2]: 7900 nM

Structure (SMILES): CCc1c(C)nc(-n2nc(C)cc2NC(=O)COc2ccccc2F)[nH]c1=O
- IC50: 630 nM
- IC50 [1]: 2500 nM
- IC50 [2]: 160 nM

Structure (SMILES): c1ccc2sc(Nc3nc4ncccc4[nH]3)nc2c1
- IC50: 1600 nM
- IC50 [1]: 1000 nM
- IC50 [2]: 1300 nM

Structure (SMILES): O=C(COc1ccccc1)Nc1ccccc1C(=O)Nc1nccs1
- IC50: > 50000 nM (inactive)
- IC50 [1]: > 50000 nM
- IC50 [2]: > 50000 nM

Structure (SMILES): Cc1ccc(NC(=O)c2ccnc(N3CCCC3)c2)cc1-c1ccsc1C(N)=O
- IC50: 13000 nM
- IC50 [1]: > 50000 nM
- IC50 [2]: 7900 nM

Structure (SMILES): O=C(CC1(O)C(=O)N(Cc2ccccc2)c2ccc(Br)cc21)c1cccnc1 (stereo not given)
- IC50: 25000 nM
- IC50 [1]: 3200 nM
- IC50 [2]: 20000 nM

Structure (SMILES): Cc1c([N+](=O)[O-])c(C(=O)Nc2sc3c(c2C#N)CCC(C)C3)nn1C (stereo not given)
- IC50: 2500 nM
- IC50 [1]: > 50000 nM
- IC50 [2]: 1600 nM

Structure (SMILES): O=C(NCCc1ccn(-c2ccccc2)n1)C1CCCCC1
- IC50: 1000 nM
- IC50 [1]: > 50000 nM
- IC50 [2]: 1000 nM

Structure (SMILES): N#Cc1ccc(Br)cc1[N+](=O)[O-]
- IC50: 790 nM
- IC50 [1]: 40000 nM
- IC50 [2]: 63 nM

Structure (SMILES): CCC1Oc2cc(S(=O)(=O)N(C)CC(=O)N3CCc4ccccc4C3)c(C)cc2NC1=O (stereo not given)
- IC50: 250 nM
- IC50 [1]: > 50000 nM
- IC50 [2]: 250 nM

Structure (SMILES): CC1CN(S(=O)(=O)c2ccc(NC(=O)c3cc(C4CC4)nc4c3cnn4C(C)C)cc2)CC(C)O1 (stereo not given)
- IC50: 790 nM
- IC50 [1]: > 50000 nM
- IC50 [2]: 630 nM

Structure (SMILES): COc1ccc(NS(=O)(=O)c2cc(NC(=O)c3ccc([N+](=O)[O-])s3)ccc2OC)cc1
- IC50: 100 nM
- IC50 [1]: > 50000 nM
- IC50 [2]: 79 nM

Structure (SMILES): Cc1c(C#N)c([N+](=O)[O-])nn1Cc1cccc(Cl)c1Cl
- IC50: 100 nM
- IC50 [1]: > 50000 nM
- IC50 [2]: 40 nM

Structure (SMILES): CCc1cc(C(=O)Nc2nccn2-c2ccccc2)cs1
- IC50: 5000 nM
- IC50 [1]: 20000 nM
- IC50 [2]: 3200 nM

Structure (SMILES): CN(C)Cc1ccc(-c2ccc(S(=O)(=O)NCC3CCCO3)c(F)c2)cc1 (stereo not given)
- IC50: 5000 nM
- IC50 [1]: 63000 nM
- IC50 [2]: 2000 nM

Structure (SMILES): O=S(=O)(NCC(c1cccnc1)N1CCN(c2ccc(F)cc2)CC1)c1cccs1 (stereo not given)
- IC50: 130 nM
- IC50 [1]: > 50000 nM
- IC50 [2]: 130 nM

Structure (SMILES): COc1ccc(Nc2nc(-c3ccccn3)cs2)c(OC)c1
- IC50: 7900 nM
- IC50 [1]: 2000 nM
- IC50 [2]: 5000 nM

Structure (SMILES): O=C(CSc1nnc2ccc(-c3ccc(F)cc3)nn12)N1CCCCC1
- IC50: 2000 nM
- IC50 [1]: > 50000 nM
- IC50 [2]: 1000 nM

Structure (SMILES): O=C(Nc1nc(-c2ccccn2)cs1)N1C[C@H]2C[C@@]2(c2ccccc2)C1
- IC50: 500 nM
- IC50 [1]: 790 nM
- IC50 [2]: 250 nM

Structure (SMILES): CCN(C)Cc1ccc(N2CCC(NS(=O)(=O)c3ccc4c(c3)CCO4)CC2)nc1
- IC50: 1300 nM
- IC50 [1]: > 50000 nM
- IC50 [2]: 1000 nM

Structure (SMILES): CCCC(=O)N(Cc1ccccn1)c1nc2ccccc2s1
- IC50: 100 nM
- IC50 [1]: > 50000 nM
- IC50 [2]: 79 nM

Structure (SMILES): CC(C)CC(=O)NC(c1cccs1)c1ccc2cccnc2c1O (stereo not given)
- IC50: 1300 nM
- IC50 [1]: 2000 nM
- IC50 [2]: 790 nM

Structure (SMILES): O=S(=O)(NCC(c1cccnc1)N1CCN(c2ccccc2F)CC1)c1ccc(F)cc1 (stereo not given)
- IC50: 200 nM
- IC50 [1]: > 50000 nM
- IC50 [2]: 200 nM

Structure (SMILES): O=C1CCCCCC1(Cc1cnc[nH]1)c1ccc(Cl)cc1Cl (stereo not given)
- IC50: 250 nM
- IC50 [1]: > 50000 nM
- IC50 [2]: 320 nM

Structure (SMILES): CC(C)S(=O)(=O)c1ccc(-c2cnc(N)c3cc(-c4ccnc(N)n4)ccc23)cc1
- IC50: 40000 nM
- IC50 [1]: 500 nM
- IC50 [2]: 13000 nM

Structure (SMILES): CNc1cc(C)nc(C2CN(C(=O)c3n[nH]c4ccccc34)CCO2)c1 (stereo not given)
- IC50: 2500 nM
- IC50 [1]: > 50000 nM
- IC50 [2]: 790 nM

Structure (SMILES): Cc1ccc(NC(=O)C(C)n2nc([N+](=O)[O-])c(Br)c2C)cc1Cl (stereo not given)
- IC50: 6300 nM
- IC50 [1]: > 50000 nM
- IC50 [2]: 3200 nM

Structure (SMILES): COc1ccc(C2CC(c3ccccc3Cl)=NN2C(=O)CNC(=O)C2CCCC2)cc1 (stereo not given)
- IC50: 3200 nM
- IC50 [1]: > 50000 nM
- IC50 [2]: 2000 nM

Structure (SMILES): N#Cc1ccc(C(=O)Nc2cccc(-c3cccc(CN4CCC(O)CC4)c3)c2)cc1
- IC50: 7900 nM
- IC50 [1]: 32000 nM
- IC50 [2]: 7900 nM

Structure (SMILES): COc1ccc(CN(C)Cc2ccncc2)cc1-c1ccc(S(=O)(=O)NC2CCC2)s1
- IC50: 630 nM
- IC50 [1]: 10000 nM
- IC50 [2]: 500 nM

Structure (SMILES): O=C(Cc1ccccc1)Nc1[nH]nc2sc(C(=O)NC3CCCC3)cc12
- IC50: 13000 nM
- IC50 [1]: 1300 nM
- IC50 [2]: 6300 nM

Source: PubChem BioAssay AID1159565 (GlaxoSmithKline (GSK), 2015)
